Source: US20230330093A1, “APPLICATION OF NITROGEN-CONTAINING SATURATED HETEROCYCLIC COMPOUND” (SHANGHAI PHARMACEUTICALS HOLDING CO., LTD., priority 2020, published 2023)

Legend:
cynomolgus monkeys [1] = experiment: 4-week safety study: necropsy, gross pathology and organ weights;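 note: daily nasogastric dosing for 28 days, organs weighed at necropsy on day 28 or after a 28-day drug-free recovery (day 56), relative weights expressed as percent of body or brain weight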
Experimental: Cynomolgus monkeys (5/sex/group) were selected using a computerized randomization procedure based on body weight, and the compound of Formula I was administered to the cynomolgus monkeys by nasogastric feeding at dose levels of 0 (control), 20, 100, 450 mg/kg/day in a volume of 5 ml/kg. Individual dose volumes were adjusted weekly based on body weight of animals. For all the groups, 2/3 of the animals were randomly selected and euthanized on day 28. The remaining animals were euthanized after 28-day drug free period.
A complete gross necropsy was conducted on all animals by visual inspection at the end of the exposure period (day 28) and the recovery phase (day 56). The following selected organs were trimmed, weighed and evaluated in terms of absolute weight and as a percentage of final body weight or brain weight: brain, heart, kidney, liver, spleen, thymus, testes, epididymides, uterus, ovaries, adrenals and thyroid (including the parathyroid). The following tissues were preserved in 10% neutral buffered formalin: brain, pituitary gland, thyroid (including the parathyroid), trachea, heart, pancreas, spleen, adrenal glands, prostate, ovaries, uterus (including cervix uteri and oviduct), vagina, testes, epididymides, seminal vesicle, esophagus, duodenum, jejunum, ileum, cecum, colon, rectum, mesenteric lymph nodes, Peyer's patches, submaxillary lymph nodes, aorta, eyes, skeletal muscle, sciatic nerve, femur (including metaphysis), mammary gland, sternum, salivary glands, spinal cord, urinary bladder, lung (including the bronchi), liver, kidneys, stomach, bone marrow (sternal), thymus, sternum, gallbladder, any gross lesions or masses. The lung tissue was inflated with fixative at the time of necropsy. All the preserved tissues were paraffin embedded, sectioned, stained with hematoxylin and eosin (HE) and examined microscopically. Bone marrow cellular morphology examination was conducted with both smear (sternum) and paraffin-embedded sternum section.
For each sex, body weight, rectal temperature, ECG, organ weight, hematological parameters and serum biochemical data were analyzed with a statistical software SAS 9.3. Firstly homogeneity of variance was analyzed using Levene's test. If P>0.05, the one-way ANOVA analysis was employed. If P<0.05, the Kruskal-Wallis test was used. If the resulting ANOVA p-value was <0.05, a comparison of each group using the Dunnett T test was performed. If the resulting Kruskal-Wallis test p-value was <0.05, then the Dunnett T test was performed after data rank conversion.

cynomolgus monkeys [2] = experiment: 4-week repeated-dose safety study: clinical observations, mortality, body weight; type: in vivo; conditions: for body weight gain: no statistical significance
Experimental: The compound of Formula I was prepared and confirmed according to the method in CN103562191B. The 0.5% of sodium carboxymethyl cellulose (CMC-Na) was used as a vehicle. The compound of Formula I was stored at room temperature, protected from light and wetness. For cynomolgus monkey safety studies, the test substance was suspended in 0.5% CMC-Na at the relevant concentrations. The homogeneity, concentration and one week stability of prepared suspension was analyzed to ensure proper administration of the reported doses. The six month accelerated stability of active pharmaceutical ingredient (API) was tested by the inventor.
Healthy male and female cynomolgus monkeys aged 3-4 years were supplied by Hainan New Source Biotech Co. Ltd. (Hainan, China). The body weight range at the start of treatment was 3.2-5.8 kg for male and 2.5-3.7 kg for female. They were housed for a 36-day acclimation period before study. Once a day in the morning, animals eat and drink freely.
Mortality and clinical signs were evaluated daily from the beginning of the quarantine period. Each animal was examined at least twice daily for any change in behavior, reaction to treatment or illness after administration.
Observations included, but were not limited to the following: changes in skin and fur; eyes and mucous membranes; respiratory, circulatory, autonomic, central nervous systems and behavior patterns. Rectal temperature was measured before administration (twice), at 1 and 24 h after first administration, and before d26 administration and at 1 and 24 h after d26 administration. Body weight was measured every week. Food consumption was estimated for monkey every day. Ophthalmoscopy was conducted for the monkey study using a portable slit lamp (YZ2) and a direct ophthalmoscope (GFJY-01B).

COC(=O)NCCCn1nc([C@@H](C)N(C(=O)[C@H]2CNCCO2)C2CC2)c2ccc(C)nc21 [compound of Formula I]
Uterus Relative weight (/body weight) (cynomolgus monkeys [1]; Female, 450 mg/kg, d 56): 0.27 ± 0.03
Uterus Relative weight (/brain weight) (cynomolgus monkeys [1]; Female, 450 mg/kg, d 56): 14.43 ± 3.09
kidney Absolute weight (cynomolgus monkeys [1]; Female, 450 mg/kg, d 56): 14.75 ± 1.91 g
kidney Relative weight (/body weight) (cynomolgus monkeys [1]; Female, 450 mg/kg, d 56): 0.42 ± 0.00
kidney Relative weight (/brain weight) (cynomolgus monkeys [1]; Female, 450 mg/kg, d 56): 22.23 ± 2.05
Liver Absolute weight (cynomolgus monkeys [1]; Male, 20 mg/kg, d 28): 69.03 ± 2.87 g
Liver Relative weight (/body weight) (cynomolgus monkeys [1]; Male, 20 mg/kg, d 28): 1.82 ± 0.21
Liver Relative weight (/brain weight) (cynomolgus monkeys [1]; Male, 20 mg/kg, d 28): 103.68 ± 11.79
Thymus Absolute weight (cynomolgus monkeys [1]; Male, 20 mg/kg, d 28): 1.10 ± 0.20 g
Thymus Relative weight (/body weight) (cynomolgus monkeys [1]; Male, 20 mg/kg, d 28): 0.03 ± 0.01
Thymus Relative weight (/brain weight) (cynomolgus monkeys [1]; Male, 20 mg/kg, d 28): 1.67 ± 0.43
kidney Absolute weight (cynomolgus monkeys [1]; Male, 20 mg/kg, d 28): 14.30 ± 1.42 g
kidney Relative weight (/body weight) (cynomolgus monkeys [1]; Male, 20 mg/kg, d 28): 0.37 ± 0.02
kidney Relative weight (/brain weight) (cynomolgus monkeys [1]; Male, 20 mg/kg, d 28): 21.46 ± 2.99
Liver Absolute weight (cynomolgus monkeys [1]; Male, 20 mg/kg, d 56): 71.25 ± 1.77 g
Liver Relative weight (/body weight) (cynomolgus monkeys [1]; Male, 20 mg/kg, d 56): 1.44 ± 0.02
Liver Relative weight (/brain weight) (cynomolgus monkeys [1]; Male, 20 mg/kg, d 56): 100.96 ± 1.74
Thymus Absolute weight (cynomolgus monkeys [1]; Male, 20 mg/kg, d 56): 2.95 ± 0.07 g
Thymus Relative weight (/body weight) (cynomolgus monkeys [1]; Male, 20 mg/kg, d 56): 0.06 ± 0.00
Thymus Relative weight (/brain weight) (cynomolgus monkeys [1]; Male, 20 mg/kg, d 56): 4.18 ± 0.08
kidney Absolute weight (cynomolgus monkeys [1]; Male, 20 mg/kg, d 56): 16.40 ± 3.11 g
kidney Relative weight (/body weight) (cynomolgus monkeys [1]; Male, 20 mg/kg, d 56): 0.33 ± 0.06
kidney Relative weight (/brain weight) (cynomolgus monkeys [1]; Male, 20 mg/kg, d 56): 23.16 ± 3.43
Liver Absolute weight (cynomolgus monkeys [1]; Male, 100 mg/kg, d 28): 72.93 ± 14.69 g
Liver Relative weight (/body weight) (cynomolgus monkeys [1]; Male, 100 mg/kg, d 28): 1.83 ± 0.25
Liver Relative weight (/brain weight) (cynomolgus monkeys [1]; Male, 100 mg/kg, d 28): 100.31 ± 9.48
Thymus Absolute weight (cynomolgus monkeys [1]; Male, 100 mg/kg, d 28): 1.57 ± 0.90 g
Thymus Relative weight (/body weight) (cynomolgus monkeys [1]; Male, 100 mg/kg, d 28): 0.04 ± 0.03
Thymus Relative weight (/brain weight) (cynomolgus monkeys [1]; Male, 100 mg/kg, d 28): 2.27 ± 1.44
kidney Absolute weight (cynomolgus monkeys [1]; Male, 100 mg/kg, d 28): 15.13 ± 3.62 g
kidney Relative weight (/body weight) (cynomolgus monkeys [1]; Male, 100 mg/kg, d 28): 0.37 ± 0.06
kidney Relative weight (/brain weight) (cynomolgus monkeys [1]; Male, 100 mg/kg, d 28): 20.85 ± 3.95
Liver Absolute weight (cynomolgus monkeys [1]; Male, 100 mg/kg, d 56): 84.75 ± 5.59 g
Liver Relative weight (/body weight) (cynomolgus monkeys [1]; Male, 100 mg/kg, d 56): 1.76 ± 0.06
Liver Relative weight (/brain weight) (cynomolgus monkeys [1]; Male, 100 mg/kg, d 56): 115.98 ± 8.59
Thymus Absolute weight (cynomolgus monkeys [1]; Male, 100 mg/kg, d 56): 2.45 ± 0.35 g
Thymus Relative weight (/body weight) (cynomolgus monkeys [1]; Male, 100 mg/kg, d 56): 0.05 ± 0.01
Thymus Relative weight (/brain weight) (cynomolgus monkeys [1]; Male, 100 mg/kg, d 56): 3.33 ± 0.02
kidney Absolute weight (cynomolgus monkeys [1]; Male, 100 mg/kg, d 56): 17.85 ± 1.91 g
kidney Relative weight (/body weight) (cynomolgus monkeys [1]; Male, 100 mg/kg, d 56): 0.37 ± 0.03
kidney Relative weight (/brain weight) (cynomolgus monkeys [1]; Male, 100 mg/kg, d 56): 24.36 ± 0.80
Liver Absolute weight (cynomolgus monkeys [1]; Male, 450 mg/kg, d 28): 94.37 ± 12.72 g
Liver Relative weight (/body weight) (cynomolgus monkeys [1]; Male, 450 mg/kg, d 28): 2.42 ± 0.20
Liver Relative weight (/brain weight) (cynomolgus monkeys [1]; Male, 450 mg/kg, d 28): 135.54 ± 14.14
Thymus Absolute weight (cynomolgus monkeys [1]; Male, 450 mg/kg, d 28): 0.90 ± 0.10 g
Thymus Relative weight (/body weight) (cynomolgus monkeys [1]; Male, 450 mg/kg, d 28): 0.02 ± 0.01
Thymus Relative weight (/brain weight) (cynomolgus monkeys [1]; Male, 450 mg/kg, d 28): 1.30 ± 0.20
kidney Absolute weight (cynomolgus monkeys [1]; Male, 450 mg/kg, d 28): 16.77 ± 2.31 g
kidney Relative weight (/body weight) (cynomolgus monkeys [1]; Male, 450 mg/kg, d 28): 0.43 ± 0.03
kidney Relative weight (/brain weight) (cynomolgus monkeys [1]; Male, 450 mg/kg, d 28): 24.07 ± 2.45
Liver Absolute weight (cynomolgus monkeys [1]; Male, 450 mg/kg, d 56): 80.90 ± 4.95 g
Liver Relative weight (/body weight) (cynomolgus monkeys [1]; Male, 450 mg/kg, d 56): 1.64 ± 0.22
Liver Relative weight (/brain weight) (cynomolgus monkeys [1]; Male, 450 mg/kg, d 56): 119.80 ± 2.56
Thymus Absolute weight (cynomolgus monkeys [1]; Male, 450 mg/kg, d 56): 2.20 ± 0.42 g
Thymus Relative weight (/body weight) (cynomolgus monkeys [1]; Male, 450 mg/kg, d 56): 0.04 ± 0.01
Thymus Relative weight (/brain weight) (cynomolgus monkeys [1]; Male, 450 mg/kg, d 56): 3.25 ± 0.50
kidney Absolute weight (cynomolgus monkeys [1]; Male, 450 mg/kg, d 56): 18.75 ± 0.21 g
kidney Relative weight (/body weight) (cynomolgus monkeys [1]; Male, 450 mg/kg, d 56): 0.38 ± 0.02
kidney Relative weight (/brain weight) (cynomolgus monkeys [1]; Male, 450 mg/kg, d 56): 27.81 ± 1.42
absolute or relative weight of uterus (cynomolgus monkeys [1]; high-dose monkeys): lower
relative weight of liver and kidney (cynomolgus monkeys [1]; high-dose monkeys): Higher
relative weight of thymus (cynomolgus monkeys [1]; high-dose monkeys): lower
macroscopic findings related to administration (cynomolgus monkeys [1]; necropsy day 28 / day 56): no macroscopic findings for monkeys deemed related to administration of the test article except mild intestinal tympanites and thymus atrophy for the monkey that died early
clinical signs of toxicity related to treatment in other animals (cynomolgus monkeys [2]; 20, 100, 450 mg/kg/day for 4 weeks): no apparent clinical signs of toxicity
body weight gain (cynomolgus monkeys [2]; high dose (450 mg/kg/day) females, controls 3.2±0.2): 2.7±0.4
body weight gain (cynomolgus monkeys [2]; high dose (450 mg/kg/day) males, controls 4.6±0.5): 4.1±0.5
mortality (cynomolgus monkeys [2]; high dose (450 mg/kg/day), nasogastric, day23): Treatment related early death occurred in one high dose female
